{"source": "patent US20130203823A1", "about": "“STABLE TOPICAL COMPOSITIONS FOR 1,2,4-THIADIAZOLE DERIVATIVES” (JANSSEN PHARMACEUTICAL, INC., priority 2009, published 2013)", "key": {"[1]": {"test": "Stability of the compound in the composition on storage, concentration by HPLC versus initial concentration", "format": "physicochemical", "description": "The compositions of the present invention have desired and improved properties, including the extended shelf-life or stability and the suitable commercial production. As used herein, the terms ‘stable composition’, ‘stable formulation’, ‘composition with extended shelf-life’ or variants thereof refer to the compound of Formula I, II, or III (and most preferably Compounds Ia, IIa, and IIIa) in the composition is stable. The stability or shelf-life of the compound may be determined by measuring the concentration and any degradation product of the compound of Formula I, II or III in the compositions using high performance liquid chromatography (HPLC). As commonly referred in the art, the compound is considered to be stable or being stabilized when the concentration of the compound retains at least about 90% to at least about 110%, preferably at least about 95% to at least about 105%, of the original concentration of the compound.\nBy way of example, the stability of the compound of Formula I, II, or III is determined using HPLC equipped with a temperature-controlled autosampler, a thermostatic column compartment, and an UV detector at about 326 nm (Agilent 1100, Waters alliance HPLC). A Zorbax C18 column is used for analyzing Compound Ia and a YMC-Pack Hydrosphere C18 column is used for analyzing Compound IIa. A binary linear gradient of mobile phases A and B is used. The mobile phase A may consist of about 0.2% trifluroacetic acid in water and the mobile phase B may consist of about 0.2% trifluroacetic acid in methanol. The gradient conditions are provided below.\nThe stability of Compound Ia was examined by measuring the concentration of Compound Ia using HPLC. The concentration of the compound in the composition stored at various temperatures for a period of time was compared to the initial concentration of the compound prior to storage."}, "[2]": {"test": "In vitro skin permeation study, cadaver skin finite dose technique, Franz diffusion cell", "format": "in vitro ADME, human", "description": "The cadaver skin finite dose technique was used for the studies. Split thickness human cadaver trunk skin was obtained from skin bank and stored in a water-impermeable plastic bag at about −70° C. Prior to each experiment, skin was thawed in water bath at about 37° C., then cut into sections large enough to fit on the Franz diffusion cell. The diffusion cells were mounted in a diffusion apparatus and filled with a receptor solution of ethanol/water/formic acid (25/75/0.3), which was stirred at about 600 RPM and maintained at about 32° C. The skin was mounted onto the diffusion cell, where the stratum corneum side faced the donor compartment and the dermal side faced the receiving compartment. About 10 μl per cm^2 of the composition was applied to the skin using a pipette. The dose was spread throughout the skin surface with a Teflon tip of the pipette. After about 4, 8, 12 and 24 hrs, the receptor solution was removed and replaced with fresh receptor solution. An aliquot was taken for analysis. The skin surface was washed with about 0.5 ml of a solvent mixture of methanol/water/formic acid (90/10/0.3). The solvent mixture was filtered and an aliquot was taken for analysis. Subsequently, the dermis and epidermis were separated and Compound IIa was extracted using the solvent mixture. The solvent mixture was filtered and an aliquot was taken for analysis. Samples were analyzed using HPLC."}, "[3]": {"settings": "aqueous gel formulation B, 0.30% w/w Compound IIa"}, "[4]": {"settings": "aqueous gel formulation B, 0.60% w/w Compound IIa"}, "[5]": {"settings": "aqueous gel formulation B, 1.2% w/w Compound IIa"}, "[6]": {"settings": "cream composition E (as titled), 0.30% w/w Compound IIa"}, "[7]": {"settings": "cream composition E (as titled), 0.60% w/w Compound IIa"}, "[8]": {"settings": "cream composition E (as titled), 1.2% w/w Compound IIa"}, "[9]": {"settings": "cream composition E (as titled), 2.4% w/w Compound IIa"}}}
{"molecule": "COc1ccccc1-c1nc(Nc2ccccc2)s[n+]1-c1ccccc1OC.[Br-]", "note": "[Compound Ia, 2-(2-methoxyphenyl)-3-(2-methoxyphenyl)-5-phenylamino-[1,2,4]-thiadiazol-2-ium]", "values": [{"measurement": "Stability in the composition (in words)", "setting": "[1]; aqueous gel composition A, 0.3% Compound Ia, ambient condition", "value": "stable at ambient condition"}, {"measurement": "Time for which the compound was stable", "setting": "[1]; emulsion composition F, refrigerated condition", "value": "at least 4 weeks"}]}
{"molecule": "COc1ccccc1-c1nc(=Nc2ccccc2)sn1-c1ccccc1OC", "note": "[Compound IIa, [2-(2-methoxyphenyl)-3-(2-methoxyphenyl)-2H-[1,2,4]-thiadiazol-5-ylidene]-phenylamine]", "values": [{"measurement": "% of Initial Concentration", "setting": "[1]; aqueous gel composition B, 0.3% Compound IIa, 12 months, 5° C.", "value": 99.47, "unit": "%"}, {"measurement": "% of Initial Concentration", "setting": "[1]; aqueous gel composition B, 0.3% Compound IIa, 12 months, 25° C.", "value": 95.60, "unit": "%"}, {"measurement": "% of Initial Concentration", "setting": "[1]; aqueous gel composition B, 0.3% Compound IIa, 24 months, 5° C.", "value": 97.92, "unit": "%"}, {"measurement": "% of Initial Concentration", "setting": "[1]; aqueous gel composition B, 0.3% Compound IIa, 24 months, 25° C.", "value": 89.49, "unit": "%"}, {"measurement": "% of Initial Concentration", "setting": "[1]; aqueous gel composition B, 0.6% Compound IIa, 12 months, 25° C.", "value": 93.90, "unit": "%"}, {"measurement": "% of Initial Concentration", "setting": "[1]; aqueous gel composition B, 0.6% Compound IIa, 24 months, 5° C.", "value": 97.02, "unit": "%"}, {"measurement": "% of Initial Concentration", "setting": "[1]; aqueous gel composition B, 0.6% Compound IIa, 24 months, 25° C.", "value": 92.69, "unit": "%"}, {"measurement": "% of Initial Concentration", "setting": "[1]; aqueous gel composition B, 1.2% Compound IIa, 12 months, 25° C.", "value": 95.49, "unit": "%"}, {"measurement": "% of Initial Concentration", "setting": "[1]; aqueous gel composition B, 1.2% Compound IIa, 24 months, 5° C.", "value": 97.56, "unit": "%"}, {"measurement": "% of Initial Concentration", "setting": "[1]; aqueous gel composition B, 1.2% Compound IIa, 24 months, 25° C.", "value": 93.87, "unit": "%"}, {"measurement": "% of Initial Concentration", "setting": "[1]; aqueous gel composition B, 1.5% Compound IIa, 12 months, 5° C.", "value": 100.68, "unit": "%"}, {"measurement": "% of Initial Concentration", "setting": "[1]; aqueous gel composition B, 1.5% Compound IIa, 12 months, 25° C.", "value": 99.03, "unit": "%"}, {"measurement": "% of Initial Concentration", "setting": "[1]; aqueous gel composition B, 2.4% Compound IIa, 12 months, 25° C.", "value": 101.30, "unit": "%"}, {"measurement": "Stability in the composition (in words)", "setting": "[1]; aqueous gel composition B, various amounts of Compound IIa, ambient condition", "value": "stable at ambient condition"}, {"measurement": "Time for which the compound was stable", "setting": "[1]; cream composition C (so in the source), ambient condition", "value": "at least 6 months"}, {"measurement": "Time for which the compound was stable", "setting": "[1]; cream composition C (so in the source), refrigerated condition", "value": "at least 18 months"}, {"measurement": "% of Initial Concentration", "setting": "[1]; cream composition D, 1.2% Compound IIa, 6 months, 5° C.", "value": 100.0, "unit": "%"}, {"measurement": "% of Initial Concentration", "setting": "[1]; cream composition D, 1.2% Compound IIa, 6 months, 25° C.", "value": 94.1, "unit": "%"}, {"measurement": "% of Initial Concentration", "setting": "[1]; cream composition D, 1.2% Compound IIa, 12 months, 5° C.", "value": 98.3, "unit": "%"}, {"measurement": "% of Initial Concentration", "setting": "[1]; cream composition D, 1.2% Compound IIa, 18 months, 5° C.", "value": 100.8, "unit": "%"}, {"measurement": "% of Initial Concentration", "setting": "[1]; emulsion composition E, 3 months, 5° C.", "value": 101.40, "unit": "%"}, {"measurement": "% of Initial Concentration", "setting": "[1]; emulsion composition E, 3 months, 25° C.", "value": 98.01, "unit": "%"}, {"measurement": "% of Initial Concentration", "setting": "[1]; emulsion composition E, 6 months, 5° C.", "value": 100.11, "unit": "%"}, {"measurement": "% of Initial Concentration", "setting": "[1]; emulsion composition E, 6 months, 25° C.", "value": 95.61, "unit": "%"}, {"measurement": "% of Initial Concentration", "setting": "[1]; emulsion composition E, 9 months, 5° C.", "value": 100.20, "unit": "%"}, {"measurement": "% of Initial Concentration", "setting": "[1]; emulsion composition E, 13 months, 5° C.", "value": 100.54, "unit": "%"}, {"measurement": "Time for which the compound was stable", "setting": "[1]; emulsion composition E, refrigerated condition", "value": "at least 13 months"}, {"measurement": "Skin penetration (in words)", "setting": "[2]; aqueous gel formulation B", "value": "able to penetrate into epidermis, dermis and receptor solution"}, {"measurement": "Total amount permeated into Dermis", "setting": "[2]; [3]", "value": 0.004, "unit": "µg"}, {"measurement": "Total amount permeated into Epidermis", "setting": "[2]; [3]", "value": 0.361, "unit": "µg"}, {"measurement": "Total amount permeated into Receptor solution", "setting": "[2]; [3]", "value": 0.020, "unit": "µg"}, {"measurement": "Total amount permeated into Dermis", "setting": "[2]; [4]", "value": 0.007, "unit": "µg"}, {"measurement": "Total amount permeated into Epidermis", "setting": "[2]; [4]", "value": 0.164, "unit": "µg"}, {"measurement": "Total amount permeated into Receptor solution", "setting": "[2]; [4]", "value": 0.045, "unit": "µg"}, {"measurement": "Total amount permeated into Dermis", "setting": "[2]; [5]", "value": 0.007, "unit": "µg"}, {"measurement": "Total amount permeated into Epidermis", "setting": "[2]; [5]", "value": 0.537, "unit": "µg"}, {"measurement": "Total amount permeated into Receptor solution", "setting": "[2]; [5]", "value": 0.074, "unit": "µg"}, {"measurement": "Total penetration amount in epidermis, dermis and receptor solution versus concentration (in words)", "setting": "[2]; as the concentration of Compound IIa increased in the formulations", "value": "increased"}, {"measurement": "Skin penetration (in words)", "setting": "[2]; cream composition D", "value": "able to penetrate into epidermis, dermis and receptor solution"}, {"measurement": "Total amount permeated into Dermis", "setting": "[2]; [6]", "value": 0.003, "unit": "µg"}, {"measurement": "Total amount permeated into Epidermis", "setting": "[2]; [6]", "value": 0.279, "unit": "µg"}, {"measurement": "Total amount permeated into Receptor solution", "setting": "[2]; [6]", "value": 0.015, "unit": "µg"}, {"measurement": "Total amount permeated into Dermis", "setting": "[2]; [7]", "value": 0.015, "unit": "µg"}, {"measurement": "Total amount permeated into Epidermis", "setting": "[2]; [7]", "value": 0.357, "unit": "µg"}, {"measurement": "Total amount permeated into Receptor solution", "setting": "[2]; [7]", "value": 0.025, "unit": "µg"}, {"measurement": "Total amount permeated into Dermis", "setting": "[2]; [8]", "value": 0.014, "unit": "µg"}, {"measurement": "Total amount permeated into Epidermis", "setting": "[2]; [8]", "value": 0.428, "unit": "µg"}, {"measurement": "Total amount permeated into Receptor solution", "setting": "[2]; [8]", "value": 0.025, "unit": "µg"}, {"measurement": "Total amount permeated into Dermis", "setting": "[2]; [9]", "value": 0.028, "unit": "µg"}, {"measurement": "Total amount permeated into Epidermis", "setting": "[2]; [9]", "value": 0.681, "unit": "µg"}, {"measurement": "Total amount permeated into Receptor solution", "setting": "[2]; [9]", "value": 0.070, "unit": "µg"}]}
